In patent publication US12083138B2, “Methods to reduce complications of intra-articular steroid” (TAIWAN LIPOSOME CO., LTD., priority 2018, dated 2024):

Legend:
cartilage = test: Cartilage toluidine blue staining, comparison of TLC599 with TA and ER-TA, Study #75903-18-214
Description: Proteoglycan loss was evaluated by cationic dyes, toluidine blue, that staining proteoglycans.

chondrocyte = settings: compared among hydrocortisone, triamcinolone and dexamethasone; cited from earlier work

| SMILES | proteoglycan loss (toluidine blue staining) (cartilage; high dose 18.75 mg/knee, single IA injection, vs saline (FIG. 3)) | proteoglycan loss in cartilage (cartilage; single dose (FIG. 3)) | effectiveness to induce chondrocyte apoptosis (chondrocyte) |
| --- | --- | --- | --- |
| CC1(C)O[C@@H]2C[C@H]3[C@@H]4CCC5=CC(=O)C=C[C@]5(C)[C@@]4(F)[C@@H](O)C[C@]3(C)[C@]2(C(=O)CO)O1 [TA, triamcinolone acetonide] | significantly proteoglycan loss compared to saline | moderate proteoglycan loss | – |
| C[C@@H]1C[C@H]2[C@@H]3CCC4=CC(=O)C=C[C@]4(C)[C@@]3(F)[C@@H](O)C[C@]2(C)[C@@]1(O)C(=O)CO [dexamethasone] | – | – | most effective |
